Laboratory results taken from US20090062401A1, “DECALINE-DERIVED COMPOUNDS AS […] ACTIVE AGENTS” (UNIVERSITAT DORTMUND, priority 2004, published 2009).
pIC50: −log10 of the molar value.

Assays:
Assay type in all cases: biochemical
PTP1B = molecular target: T1, PTP1B (Homo sapiens, UniProt P18031); assay: PTP1B phosphatase inhibition, general phosphatase assay using para-nitrophenylphosphate; settings: read-out: IC50 Target PTP1B
T1 sequence (P18031 1-435): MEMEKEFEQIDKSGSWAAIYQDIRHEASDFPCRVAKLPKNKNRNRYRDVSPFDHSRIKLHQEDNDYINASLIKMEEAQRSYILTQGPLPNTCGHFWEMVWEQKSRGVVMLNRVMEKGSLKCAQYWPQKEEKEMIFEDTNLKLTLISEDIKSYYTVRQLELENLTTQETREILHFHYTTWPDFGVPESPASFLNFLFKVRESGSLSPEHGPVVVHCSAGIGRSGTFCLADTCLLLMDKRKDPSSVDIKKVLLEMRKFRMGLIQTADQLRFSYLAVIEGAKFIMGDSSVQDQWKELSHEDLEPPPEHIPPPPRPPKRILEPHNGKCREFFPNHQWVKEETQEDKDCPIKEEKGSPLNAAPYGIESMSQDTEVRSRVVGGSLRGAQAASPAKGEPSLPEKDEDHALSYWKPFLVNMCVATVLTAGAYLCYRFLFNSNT
Source text: (§1) Assays protocols for the other enzymes mentioned herein (MtPTPA, PP1, VHR, PTP1B) are disclosed in Schweizer R A S, Atanasov, G A, Frey B M, and Odermatt A, Mol. Cell. Endocrinol. 2003, 212, 41-49 and Barratte, B., Meijer L., Galaktionov K. & Beach D, Anticancer Res. 1992, 12, 873-880. For determination of the phosphatase activity, a general phosphatase assay using para-nitrophenylphosphate was applied.

VHR = VHR (Homo sapiens, UniProt P51452); assay: VHR phosphatase inhibition, general phosphatase assay using para-nitrophenylphosphate; settings: read-out: IC50 Target VHR
Chain of VHR (P51452 whole entry, species assumed): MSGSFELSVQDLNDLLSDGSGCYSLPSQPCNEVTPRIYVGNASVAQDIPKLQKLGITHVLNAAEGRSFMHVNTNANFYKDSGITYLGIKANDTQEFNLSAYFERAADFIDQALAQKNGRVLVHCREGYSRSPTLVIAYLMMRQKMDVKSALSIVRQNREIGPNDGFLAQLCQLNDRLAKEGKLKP
Source text: as §1

Cdc25A = molecular target: T2, Cdc25A (Homo sapiens, UniProt P30304); assay: Cdc25A phosphatase inhibition; settings: read-out: IC50 Target Cdc25A
T2 sequence (P30304 1-524): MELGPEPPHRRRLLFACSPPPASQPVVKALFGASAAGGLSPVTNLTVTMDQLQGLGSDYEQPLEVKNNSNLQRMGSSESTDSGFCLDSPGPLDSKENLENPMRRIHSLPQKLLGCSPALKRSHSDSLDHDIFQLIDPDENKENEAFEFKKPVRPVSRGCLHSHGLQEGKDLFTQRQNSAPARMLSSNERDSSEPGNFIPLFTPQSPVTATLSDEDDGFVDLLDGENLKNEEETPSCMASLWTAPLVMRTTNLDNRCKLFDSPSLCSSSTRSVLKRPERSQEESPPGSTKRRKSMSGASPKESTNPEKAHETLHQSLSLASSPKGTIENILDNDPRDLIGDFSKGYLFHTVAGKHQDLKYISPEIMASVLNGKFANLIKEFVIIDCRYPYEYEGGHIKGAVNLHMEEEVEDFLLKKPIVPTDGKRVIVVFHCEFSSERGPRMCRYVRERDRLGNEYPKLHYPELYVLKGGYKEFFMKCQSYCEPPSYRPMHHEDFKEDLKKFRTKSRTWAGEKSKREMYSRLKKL
Source text: Assay protocols for Cdc25A, 11βHSD1, 11βHSD2, and AChE are described in detain in the publication of Koch M A, Wittenberg L O, Basu S, Jeyaraj D A, Gourzoulidou E, Reinecke K, Odermatt A, Waldmann H (Proc. Natl. Acad. Sci. U.S.A. 2004 Nov. 30; 101(48):16721-6) and in Koch M A et al., Proc. Natl. Acad. Sci. U.S.A. 2005 Nov. 29; 102 (48):17272-7.

Row | Compound | pIC50 (PTP1B) | pIC50 (VHR) | pIC50 (Cdc25A)
1 | CC1=C2CCC[C@H](O)[C@@]2(C)C/C(=C\c2cccs2)C1=O [Compound 30, (3E,4aS,5S)-4,4a,5,6,7,8-Hexahydro-5-hydroxy-1,4a-dimethyl-3-[(thiophen-2-yl)methylen]naphthalen-2(3H)-one] | 4.30 to 5.00 | 4.30 to 5.00 | 
2 | CCCCCCCCCCCCCCC#Cc1ccc(/C=C2\C[C@@]3(C)C(=C(C)C2=O)CCC[C@@H]3O)cc1 [Compound 43, (3E,4aS,5S)-3-[4-(Hexadec-1-inyl)benzyliden]-4,4a,5,6,7,8-hexahydro-5-hydroxy-1,4a-dimethyl-naphthalen-2(3H)-one] | 4.30 to 5.00 | 4.30 to 5.00 | 
3 | COC#Cc1ccc(/C=C2\C[C@@]3(C)C(=C(C)C2=O)CCC[C@@H]3O)cc1 [Compound 37, (3E,4aS,5S)-3-[4-(2-Methoxy-ethinyl)benzyliden]-4,4a,5,6,7,8-hexahydro-5-hydroxy-1,4a-dimethylnaphthalen-2(3H)-one] | 4.30 to 5.00 |  | 
4 | C=CC[C@@]12C(=CC(=O)/C(=C/c3ccccc3C#CCCCCCCCCCCCCCC)[C@@H]1C)CCC[C@@H]2O [Compound 326, (3E,4R,4aS,5S)-3-[2-(Hexadec-1-inyl)benzyliden]-4a-allyl-4,4a,5,6,7,8-hexahydro-5-hydroxy-4-methylnaphthalen-2(3H)on] |  |  | 4.30 to 5.00
5 | CC1=C2CCC[C@H](O)[C@@]2(C)C/C(=C\c2sccc2C)C1=O [Compound 33] | 4.30 to 5.00 | 4.30 to 5.00 | 
6 | C=CC[C@]12C(CCC[C@@H]1O)C(C)C(=O)/C(=C/c1cccc(C#CCOC)c1)[C@@H]2C (stereo partly drawn) [Compound 349, (E,4R,4aR,5S)-3-[3-(3-Methoxyprop-1-inyl)benzyliden]-4a-allyl-octahydro-5-hydroxy-1,4-dimethylnaphthalen-2(1H)-one] |  |  | 4.30 to 5.00
7 | CC1=C2CCCC3(OCCO3)C2(C)CC/C1=C1/C=CC(=O)O1 (centres unmarked) [Compound 415, (5E)-5-(5′,8a′-dimethyl-3′,4′,8′,8a′-tetrahydro-2′H-spiro[1,3-dioxolane-2,1′-naphthalen]-6′(7′H)-ylidene)furan-2(5H)-one] |  |  | 4.30 to 5.00
8 | CC1=C2CCC[C@H](O)[C@@]2(C)C/C(=C\c2ccc(OCc3ccccc3)cc2)C1=O [Compound 66, (3E,4aS,5S)-3-[4-(Benzyloxy)benzyliden]-4,4a,5,6,7,8-hexahydro-5-hydroxy-1,4a-dimethylnaphthalen-2(3H)-one] | 4.30 to 5.00 |  | 
9 | CCCCCCC#Cc1ccccc1/C=C1\CCC2C(C)C(O)CC[C@]2(C)C1NC1CCCCC1 (stereo partly drawn) [Compound 323, (E,4aS)-6-[2-(Oct-1-inyl)benzyliden]-5-(cyclohexylamino)-decahydro-1,4a-dimethylnaphthalen-2-ol] |  |  | 4.30 to 5.00
10 | CC1=C2CCC[C@H](O)[C@@]2(C)C/C(=C\CCc2ccco2)C1=O [Compound 59, (3E,4aS,5S)-3-[3-(Furan-2-yl)propyliden]-4,4a,5,6,7,8-hexahydro-5-hydroxy-1,4a-dimethylnaphthalen-2(3H)-one] | 4.30 to 5.00 |  | 
11 | CC1C(=O)/C(=C/c2cccn2C)C[C@@]2(C)C1CCC[C@@H]2O (stereo partly drawn) [Compound 86, (E,4aS,5S)-Octahydro-5-hydroxy-1,4a-dimethyl-3-[(1-methyl-1H-pyrrol-2-yl)methylen]naphthalen-2(1H)-one] |  |  | 4.30 to 5.00
12 | CC1=C2CCC[C@H](O)[C@@]2(C)CC(=Cc2ccc(C#Cc3ccncc3)cc2)C1=O [Compound 395, (4aS,5S)-5-Hydroxy-1,4a-dimethyl-3-(4-pyridin-4-ylethynyl-benzylidene)-4,4a,5,6,7,8-hexahydro-3H-naphthalen-2-one] | 4.30 to 5.00 | 4.30 to 5.00 | 
13 | COCC#Cc1cccc(/C=C2\C[C@@]3(C)C(CCC[C@@H]3O)C(C)C2NC2CCCCC2)c1 (stereo partly drawn) [Compound 346, (E,1S,8aS)-7-[3-(3-Methoxyprop-1-inyl)benzyliden]-6-(cyclohexylamino)-decahydro-5,8a-dimethylnaphthalen-1-ol] |  |  | 4.30 to 5.00
14 | CC1=C2CC(C(C)C)CC(O)C2CCC1=O (centres unmarked) [Compound 417, 5-Hydroxy-7-isopropyl-1-methyl-4,4a,5,6,7,8,-hexahydro-3H-naphthalen-2-one] | 4.30 to 5.00 |  | 
15 | CC1=C2CCC[C@H](O)[C@@]2(C)C/C(=C\c2c(C)c(C)c(C)c(C)c2C)C1=O [Compound 61, (3E,4aS,5S)-3-(2,3,4,5,6-Pentamethylbenzyliden)-4,4a,5,6,7,8-hexahydro-5-hydroxy-1,4a-dimethylnaphthalen-2(3H)-one] | 4.30 to 5.00 |  | 
16 | CC1=C2CCC[C@H](O)[C@@]2(C)C/C(=C\C[C@]2(O)C[C@@H](O)[C@@H](O)[C@H](O)C2)C1=O [Compound 58, (3E,4aS,5S)-4,4a,5,6,7,8-Hexahydro-5-hydroxy-3-{2-[(1S,3R,4S,5R)-1,3,4,5-tetrahydroxycyclohexyl]-ethyliden}-1,4a-dimethylnaphthalen2(3H)-one] | 4.30 to 5.00 | 4.30 to 5.00 | 
17 | CCCCCCCCCC#Cc1ccc(/C=C2\C[C@@]3(C)C(=C(C)C2=O)CCC[C@@H]3O)cc1 [Compound 90, (3E,4aS,5S)-3-[4-(Undec-1-inyl)benzyliden]-4,4a,5,6,7,8-hexahydro-5-hydroxy-1,4a-dimethylnaphthalen-2(3H)-one] | 4.30 to 5.00 |  | 
18 | CC1=C2CCC[C@H](O)[C@@]2(C)C/C(=C\c2ccc(C#Cc3ccc(C)cc3)cc2)C1=O [Compound 41, (3E,4aS,5S)-3-[4-(2-p-Tolylethinyl)benzyliden]-4,4a,5,6,7,8-hexahydro-5-hydroxy-1,4a-dimethyl-naphthalen-2(3H)-one] | 4.30 to 5.00 |  | 
19 | CCCCCCCCCCCCCCC#Cc1ccccc1/C=C1\C[C@@]2(C)C(=CC1=O)CCC[C@@H]2O [Compound 332, (3E,4aS,5S)-3-[2-(Hexadec-1-inyl)benzyliden]-4,4a,5,6,7,8-hexahydro-5-hydroxy-4a-methylnaphthalen-2(3H)-one] |  |  | 4.30 to 5.00
20 | COCC#Cc1ccccc1/C=C1\C[C@@]2(C)C(=CC1=O)CCC[C@@H]2O [Compound 334, (3E,4aS,5S)-3-[2-(3-Methoxyprop-1-inyl)benzyliden]-4,4a,5,6,7,8-hexahydro-5-hydroxy-4a-methylnaphthalen-2(3H)-one] |  |  | 4.30 to 5.00
21 | C=C(C)C#Cc1ccc(/C=C2\C[C@@]3(C)C(=C(C)C2=O)CCC[C@@H]3O)cc1 [Compound 71, (3E,4aS,5S)-3-[4-(3-Methylbut-3-en-1-inyl)benzyliden]-4,4a,5,6,7,8-hexahydro-5-hydroxy-1,4a-dimethylnaphthalen-2(3H)-on] |  |  | 4.30 to 5.00
22 | CC1=C2CCC[C@H](O)[C@@]2(C)C/C(=C\c2ccco2)C1=O [Compound 34, (3E,4aS,5S)-3-[(Furan-2-yl)methylen]-4,4a,5,6,7,8-hexahydro-5-hydroxy-1,4a-dimethylnaphthalen-2(3H)-one] | 4.30 to 5.00 |  | 
23 | CC1=C2CCC[C@H](O)[C@@]2(C)C/C(=C\c2ccc(C#CCCCc3ccccc3)cc2)C1=O [Compound 72, (3E,4aS,5S)-3-[4-(5-Phenylpent-1-inyl)benzyliden]-4,4a,5,6,7,8-hexahydro-5-hydroxy-1,4a-dimethylnaphthalen-2(3H)-one] |  |  | 4.30 to 5.00
24 | COc1ccc(/C=C2\C[C@@]3(C)C(=C(C)C2=O)CCC[C@@H]3O)c(C)c1 [Compound 16, (3E,4aS,5S)-3-(4-Methoxy-2-methylbenzyliden)-4,4a,5,6,7,8-hexahydro-5-hydroxy-1,4a-dimethylnaphthalen-2(3H)-one] | 4.30 to 5.00 | 4.30 to 5.00 | 
25 | C=CC[C@@]12C(=CC(=O)/C(=C/CC)[C@@H]1C)CCC[C@@H]2O [Compound 282, (3E,4R,4aS,5S)-4a-Allyl-4,4a,5,6,7,8-hexahydro-5-hydroxy-4-methyl-3-propylidennaphthalen-2(3H)-one] | 4.30 to 5.00 |  | 
26 | CCCCCCC#Cc1ccc(/C=C2\C[C@@]3(C)C(=C(C)C2=O)CCC[C@@H]3O)cc1 [Compound 91, (3E,4aS,5S)-3-[4-(Oct-1-inyl)benzyliden]-4,4a,5,6,7,8-hexahydro-5-hydroxy-1,4a-dimethylnaphthalen-2(3H)-one] |  |  | > 5.00
